Data from article PMC5939191 (Chemical Science, 2018).
Counter-ions that a name gives are not always drawn.

Experiment: Apparent aqueous solubility by the dissolution method
Conditions: water; for solubility: 22 °C, thermodynamic from solid

Structure (SMILES)	solubility [mg/mL]	solubility (unusually high)
O=c1n(CCCN2CCN(c3cccc(Cl)c3)CC2)nc2ccccn12 [[TrH]Cl, Trazodone hydrochloride]	38.5 ± 0.2	–
CCCC[N+]1(C)[C@@H]2C[C@@H](OC(=O)[C@H](CO)c3ccccc3)C[C@H]1[C@@H]1O[C@@H]12 (stereo partly drawn) [[Bs]Br, Butyl scopolammonium bromide]	1800 ± 200	more than one gram per milliliter
